pIC50: −log10 of the molar value.
Experiments:
Her2 = Her2 (Homo sapiens, UniProt P04626); test: Elution of Her2 from ATP-Sepharose column by compound (Proteome Mining), IC50 estimate; assay type: binding; details: estimated from percent of protein eluted from ATP-Sepharose column, gel densitometry; read-out: Approximate IC50 for Her2
Method: A proteome containing a known quantity of Her2, EGFR, and B-Raf was run over an ATP-Sepharose™ column in order to bind all purine-binding proteins. […] The ATP-Sepharose™ was washed several times, and then eluted with the compound of Formula III. The experiment was run in duplicate at concentrations of 20 μM, 100 μM, and 500 μM of the compound of Formula III. The eluted fractions were run on a 1-dimensional SDS polyacrylamide gel. Gels were stained with a fluorescent stain such as sypro ruby (a highly sensitive fluorescent protein stain that can readily detect less than 1 fmol of total protein, i.e., less than 0.04 ng for a 40 kDa protein). The gels were imaged using a standard flat bed gel imager and the amount of protein estimated by densiometry. The percent of protein eluted from the column at each concentration was determined and IC50 values were calculated from these estimates. Where necessary, the eluted proteins were cut out of the gel, and identified using mass spectral techniques.

[1] = biological target: T1, propionyl-CoA carboxylase subunit beta (PCCB) (Sus scrofa, UniProt P79384); test: Elution of PCCB from ATP-Sepharose column loaded with porcine liver proteome, IC50 estimate; assay type: binding; details: estimated from percent of protein eluted from ATP-Sepharose column, read-out: Approximate IC50 for PCCB
T1 construct: a porcine liver proteome was run over an ATP-Sepharose™ column; from tissue; host or cells: porcine liver
T1 sequence (P79384 29-539): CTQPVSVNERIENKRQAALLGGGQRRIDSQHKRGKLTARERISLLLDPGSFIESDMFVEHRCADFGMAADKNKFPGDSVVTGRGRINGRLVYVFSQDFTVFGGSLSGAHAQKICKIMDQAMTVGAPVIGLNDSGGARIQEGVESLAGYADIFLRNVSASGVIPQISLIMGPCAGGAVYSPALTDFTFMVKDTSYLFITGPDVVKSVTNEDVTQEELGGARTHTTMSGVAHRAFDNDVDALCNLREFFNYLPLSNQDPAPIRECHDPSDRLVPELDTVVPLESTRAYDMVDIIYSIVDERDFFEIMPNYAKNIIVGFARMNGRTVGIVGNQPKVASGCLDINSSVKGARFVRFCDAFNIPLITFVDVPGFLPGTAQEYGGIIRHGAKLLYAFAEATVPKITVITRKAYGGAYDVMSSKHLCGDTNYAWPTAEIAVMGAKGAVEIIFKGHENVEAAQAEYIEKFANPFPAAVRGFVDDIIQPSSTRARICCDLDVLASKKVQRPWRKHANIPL
T1 sequence (P0DTA4 53-730 partner): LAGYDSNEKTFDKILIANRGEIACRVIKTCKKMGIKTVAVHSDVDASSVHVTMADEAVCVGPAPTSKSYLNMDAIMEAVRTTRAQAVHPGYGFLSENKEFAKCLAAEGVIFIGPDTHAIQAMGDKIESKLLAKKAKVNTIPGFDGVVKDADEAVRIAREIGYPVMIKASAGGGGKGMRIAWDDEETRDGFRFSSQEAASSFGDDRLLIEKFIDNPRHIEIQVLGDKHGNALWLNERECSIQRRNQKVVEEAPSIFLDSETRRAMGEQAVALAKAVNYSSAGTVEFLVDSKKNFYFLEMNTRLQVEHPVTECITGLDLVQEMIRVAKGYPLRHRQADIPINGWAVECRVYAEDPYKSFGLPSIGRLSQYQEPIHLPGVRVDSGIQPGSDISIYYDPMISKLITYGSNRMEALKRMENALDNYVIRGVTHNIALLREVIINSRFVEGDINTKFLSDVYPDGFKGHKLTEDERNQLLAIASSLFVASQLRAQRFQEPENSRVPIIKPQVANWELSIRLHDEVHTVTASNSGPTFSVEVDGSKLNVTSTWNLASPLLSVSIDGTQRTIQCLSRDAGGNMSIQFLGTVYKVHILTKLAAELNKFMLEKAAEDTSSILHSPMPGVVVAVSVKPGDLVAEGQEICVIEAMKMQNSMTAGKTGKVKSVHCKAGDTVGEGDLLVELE
Method: Similar experiments were carried out to compare the IC50 values for PYC, PCCA, and PCCB. In these trials, a porcine liver proteome was run over an ATP-Sepharose™ column to bind all purine-binding proteins. The ATP-Sepharose™ column was washed several times, and then eluted with the compound of Formula III at concentrations of 1 μM, 5 μM, 10 μM, 50 μM, 100 μM, and 500 μM to identify proteins that bound to this compound.
Gels were stained with a fluorescent stain such as sypro ruby (a highly sensitive fluorescent protein stain that can readily detect less than 1 fmol of total protein, i.e., less than 0.04 ng for a 40 kDa protein). The gels were imaged using a standard flat bed gel imager and the amount of protein estimated by densiometry. The percent of protein eluted from the column at each concentration was determined and IC50 values were calculated from these estimates. Where necessary, the eluted proteins were cut out of the gel, and identified using mass spectral techniques.
The values obtained were then compared to those for DHFR.

Sequence of Her2 (P04626 23-1255, species assumed): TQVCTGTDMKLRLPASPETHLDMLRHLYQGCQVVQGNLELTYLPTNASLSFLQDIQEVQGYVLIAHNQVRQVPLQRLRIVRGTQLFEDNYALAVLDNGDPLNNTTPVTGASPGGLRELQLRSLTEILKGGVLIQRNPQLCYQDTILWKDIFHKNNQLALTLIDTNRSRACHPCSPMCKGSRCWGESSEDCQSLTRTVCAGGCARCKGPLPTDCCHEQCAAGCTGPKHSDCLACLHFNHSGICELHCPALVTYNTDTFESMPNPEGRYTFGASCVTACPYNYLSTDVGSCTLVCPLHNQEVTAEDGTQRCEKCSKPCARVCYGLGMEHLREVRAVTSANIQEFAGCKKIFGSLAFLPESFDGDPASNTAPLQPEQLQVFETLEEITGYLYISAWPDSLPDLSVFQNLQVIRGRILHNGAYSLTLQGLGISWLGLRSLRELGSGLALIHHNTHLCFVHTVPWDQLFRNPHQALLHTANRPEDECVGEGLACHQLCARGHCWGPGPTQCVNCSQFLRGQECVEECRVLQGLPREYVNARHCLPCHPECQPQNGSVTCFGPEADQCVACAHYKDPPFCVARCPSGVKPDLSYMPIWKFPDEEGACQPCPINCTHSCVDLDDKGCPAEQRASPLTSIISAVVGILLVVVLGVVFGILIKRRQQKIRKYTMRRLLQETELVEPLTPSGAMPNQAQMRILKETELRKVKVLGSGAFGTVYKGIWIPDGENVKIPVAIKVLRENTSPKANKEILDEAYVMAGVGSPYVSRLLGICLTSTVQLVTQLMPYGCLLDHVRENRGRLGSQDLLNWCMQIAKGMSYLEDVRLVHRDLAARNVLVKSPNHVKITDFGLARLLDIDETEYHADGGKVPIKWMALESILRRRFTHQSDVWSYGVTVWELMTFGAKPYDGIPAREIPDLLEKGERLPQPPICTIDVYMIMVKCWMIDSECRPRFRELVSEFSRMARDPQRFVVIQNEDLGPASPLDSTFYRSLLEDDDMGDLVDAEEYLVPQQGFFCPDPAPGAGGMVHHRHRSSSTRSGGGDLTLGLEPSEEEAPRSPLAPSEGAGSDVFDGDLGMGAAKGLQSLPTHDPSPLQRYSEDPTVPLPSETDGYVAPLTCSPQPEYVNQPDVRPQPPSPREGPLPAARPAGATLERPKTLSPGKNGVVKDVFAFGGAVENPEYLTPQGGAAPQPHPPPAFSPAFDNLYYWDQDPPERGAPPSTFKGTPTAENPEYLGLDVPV

SMILES	pIC50 (Her2)	pIC50 [1]
C#CCN(Cc1cnc2nc(N)nc(N)c2n1)c1ccc(C(=O)NC(CCC(=O)O)C(=O)O)cc1C (centres unmarked) [Formula III, 2-{4-[(2,4-diamino-pteridin-6-ylmethyl)-prop-2-ynyl-amino]-3-methyl-benzoylamino}-pentanedioic acid]	6.05	5.46
C#CCN(Cc1cnc2nc(N)nc(N)c2n1)c1ccc(C(=O)NC(CCC(=O)O)C(=O)O)cc1OC(F)(F)F (centres unmarked) [Formula IX]	5.12	4.85
C#CCN(Cc1cnc2nc(N)nc(N)c2n1)c1ccc(C(=O)NC(CCC(=O)O)C(=O)O)cc1OC (centres unmarked) [Formula VIII]	5.30	5.46
Cc1cc(C(=O)NC(CCC(=O)O)C(=O)O)ccc1N(Cc1ccoc1)Cc1cnc2nc(N)nc(N)c2n1 (centres unmarked) [Formula VII]	5.30	5.52

Source: US20060035901A1, “Methotrexate derivatives useful for treating cancer and arthritis” (Serenex, Inc., priority 2004, published 2006)
